Patent US11590117B2, “Treatment of a hematologic malignancy with 2-(4-chlorophenyl)-n-((2-(2,6-dioxopiperidin-3-yl)-1-oxoisoindolin-5-yl)methyl)-2,2-difluoroacetamide” (priority 2016, dated 2023)

How the values were obtained:
HNT-34 cells and PBMCs [1] = experiment: Flow cytometry caspase 3/7 assay; type: cell-based, human; conditions: HNT-34 cells over non-pre-activated PBMCs; 0.1 μM Compound 1; 72 hours
Description: Cell Apoptosis Assays: The ability of Compound 1 to induce apoptosis was assessed in selected AML cell lines and healthy PBMCs at the time points and compound concentrations indicated. For Annexin V/7-AAD readout by flow cytometry, AML cell lines were plated into flat bottom 96-well plates (BD Falcon) at a seeding density of 0.1 to 0.3×10^6 cells per mL in 200 μL complete media. Compound 1 was dispensed onto the plates and the cells were incubated for the times indicated. For frozen PBMCs, cells were thawed as previously described and plated at a seeding density of 1×10^6 cells per mL in 200 μL on Corning® BioCoat™ T-Cell Activation Anti-Human CD3 96-well plates (Corning Inc., Corning, N.Y.). Compound 1 was dispensed onto the plates and the cells were incubated for the times indicated. […] One hundred microliters of Annexin V/7-AAD buffer was added per well and the cells incubated for 15 minutes before being analyzed using the Attune Flow Cytometer (Life Technologies, Carlsbad, Calif.). For caspase 3/7 activity, the remaining 100 μL was incubated with CellEvent™ Caspase-3/7 Green ReadyProbes® Reagent (1:1000 dilution; Molecular Probes) for 15 minutes before being analyzed using the Attune Flow Cytometer. […]
The effects of Compound 1 in healthy PBMCs were also assessed. Compound 1 was added to PBMC s from one donor at time zero and assessed at 72 hours. […]

HNT-34 cells and PBMCs [2] = experiment: JC-1 mitochondrial membrane potential assay; type: cell-based, human; conditions: HNT-34 cells over non-pre-activated PBMCs; 0.1 μM Compound 1; 72 hours

For O=C1CCC(N2Cc3cc(CNC(=O)C(F)(F)c4ccc(Cl)cc4)ccc3C2=O)C(=O)N1 (centres unmarked) [Compound 1, 2-(4-chlorophenyl)-N-((2-(2,6-dioxopiperidin-3-yl)-1-oxoisoindolin-5-yl)methyl)-2,2-difluoroacetamide], the “difference in elevation of caspase 3/7 activity” value (HNT-34 cells and PBMCs [1]) was about 3 fold and the “difference in increase of membrane depolarization” value (HNT-34 cells and PBMCs [2]) was about 7 fold.
